Test results: PubChem BioAssay AID248 (DTP/NCI, 2004)
Inconclusive results and toxic doses are left out. Rule as the data show it: active = T/C of 150% or more; inactive = T/C below 125%.

Tested on: L1210 leukemia ip in BDF1 mice, survival T/C
Assay: NCI In Vivo Anticancer Drug Screen. Data for tumor model L1210 Leukemia (intraperitoneal) in B6D2F1 (BDF1) mice
Details: endpoint: mean survival time, higher = longer survival
How it was run: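 Transplantable tumor model; survival measured in treated vs vehicle control mice. Value = treated/control.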

[1] = dose: 50.0 mg/kg/injection, schedule: Q01DX009 (ip), vehicle: saline
[2] = dose: 50.0 mg/kg/injection, schedule: Q04DX003 (ip), vehicle: saline
[3] = dose: 100.0 mg/kg/injection, schedule: Q01DX001 (ip), vehicle: saline
[4] = dose: 100.0 mg/kg/injection, schedule: Q01DX009 (ip), vehicle: saline
[5] = dose: 100.0 mg/kg/injection, schedule: Q04DX003 (ip), vehicle: Klucel (hydroxypropylcellulose) (HPC)
[6] = dose: 100.0 mg/kg/injection, schedule: Q04DX003 (ip), vehicle: saline
[7] = dose: 200.0 mg/kg/injection, schedule: Q01DX001 (ip), vehicle: saline
[8] = dose: 200.0 mg/kg/injection, schedule: Q04DX003 (ip), vehicle: Klucel (hydroxypropylcellulose) (HPC)
[9] = dose: 200.0 mg/kg/injection, schedule: Q04DX003 (ip), vehicle: saline
[10] = dose: 400.0 mg/kg/injection, schedule: Q04DX003 (ip), vehicle: saline
[11] = dose: 100.0 mg/kg/injection, schedule: Q01DX009 (ip), vehicle: saline with Tween-80
[12] = dose: 100.0 mg/kg/injection, schedule: Q04DX003 (ip), vehicle: saline with Tween-80
[13] = dose: 200.0 mg/kg/injection, schedule: Q01DX009 (ip), vehicle: saline with Tween-80
[14] = dose: 200.0 mg/kg/injection, schedule: Q04DX003 (ip), vehicle: saline with Tween-80
[15] = dose: 100.0 mg/kg/injection, schedule: Q01DX009 (ip), vehicle: Klucel (hydroxypropylcellulose) (HPC)
[16] = dose: 200.0 mg/kg/injection, schedule: Q01DX009 (ip), vehicle: Klucel (hydroxypropylcellulose) (HPC)
[17] = dose: 400.0 mg/kg/injection, schedule: Q01DX001 (ip), vehicle: saline
[18] = dose: 400.0 mg/kg/injection, schedule: Q01DX009 (ip), vehicle: Klucel (hydroxypropylcellulose) (HPC)
[19] = dose: 400.0 mg/kg/injection, schedule: Q04DX003 (ip), vehicle: Klucel (hydroxypropylcellulose) (HPC)
[20] = dose: 400.0 mg/kg/injection, schedule: Q01DX009 (ip), vehicle: saline with Tween-80
[21] = dose: 75.0 mg/kg/injection, schedule: Q01DX001 (ip), vehicle: carboxymethylcellulose (CMC)
[22] = dose: 150.0 mg/kg/injection, schedule: Q01DX001 (ip), vehicle: carboxymethylcellulose (CMC)
[23] = dose: 100.0 mg/kg/injection, schedule: Q01DX001 (ip), vehicle: other
[24] = dose: 200.0 mg/kg/injection, schedule: Q01DX001 (ip), vehicle: other
[25] = dose: 400.0 mg/kg/injection, schedule: Q01DX001 (ip), vehicle: other

Measured: T/C

O=C1OC(=O)C2C3c4ccccc4C(c4ccccc43)C12 (configuration not stated)
inactive: dose: 25.0 mg/kg/injection, schedule: Q01DX009 (ip), vehicle: saline 103 % of control | [1] 98 % of control | [2] 96 % of control | [3] 98 % of control | [4] 114 % of control | [5] 103 % of control | [6] 98 % of control | [7] 88 % of control | [8] 90 % of control

O=S1(=O)CCOCC1
inactive: dose: 100.0 mg/kg/injection, schedule: Q01DX009 (ip), vehicle: saline sonified 105 % of control | [6] 97 % of control | dose: 200.0 mg/kg/injection, schedule: Q01DX009 (ip), vehicle: saline sonified 97 % of control | [9] 95 % of control | dose: 400.0 mg/kg/injection, schedule: Q01DX009 (ip), vehicle: saline sonified 102 % of control | [10] 105 % of control

NNc1ccccc1C(=O)O
inactive: dose: 50.0 mg/kg/injection, schedule: Q01DX001 (ip), vehicle: carboxymethylcellulose (CMC) 94 % of control | dose: 100.0 mg/kg/injection, schedule: Q01DX001 (ip), vehicle: carboxymethylcellulose (CMC) 94 % of control | dose: 200.0 mg/kg/injection, schedule: Q01DX001 (ip), vehicle: carboxymethylcellulose (CMC) 105 % of control | dose: 400.0 mg/kg/injection, schedule: Q01DX001 (ip), vehicle: carboxymethylcellulose (CMC) 94 % of control

CC/C(=N/O)c1ccc(O)cc1O
inactive: [11] 106 % of control | [12] 101 % of control | [13] 106 % of control | [14] 101 % of control | dose: 400.0 mg/kg/injection, schedule: Q04DX003 (ip), vehicle: saline with Tween-80 101 % of control

CC(C)C(C(=O)c1ccccc1)C(c1ccccc1)c1ccccc1 (configuration not stated)
inactive: dose: 100.0 mg/kg/injection, schedule: Q01DX009 (ip), vehicle: other 103 % of control | dose: 200.0 mg/kg/injection, schedule: Q01DX009 (ip), vehicle: other 90 % of control | dose: 400.0 mg/kg/injection, schedule: Q01DX009 (ip), vehicle: other 103 % of control

CO/N=C1/C=C(C)C(=O)C(C)=C1C
inactive: dose: 50.0 mg/kg/injection, schedule: Q01DX001 (ip), vehicle: saline 94 % of control | [3] 97 % of control | [15] 102 % of control | [5] 97 % of control | [7] 105 % of control | [16] 98 % of control | [8] 92 % of control | [17] 94 % of control | [18] 95 % of control | [19] 101 % of control

N#CC(CC(=O)c1ccc(Cl)cc1)c1ccccc1 (configuration not stated)
inactive: [11] 91 % of control | [13] 96 % of control | [20] 91 % of control

Cc1ccc(O)c[n+]1[O-]
inactive: [3] 94 % of control | [15] 103 % of control | [6] 101 % of control | [7] 97 % of control | [16] 94 % of control | [9] 97 % of control | [17] 100 % of control | [18] 103 % of control | [10] 103 % of control

Cc1ccc(NC(=O)OC/C=C/c2ccccc2)cc1NC(=O)OC/C=C/c1ccccc1
inactive: [16] 93 % of control

COc1cc(-c2cc(=O)c3c(O)cc(O)c(C4OC(CO)C(O)C(O)C4O)c3o2)ccc1O (configuration not stated)
inactive: [4] 108 % of control | dose: 200.0 mg/kg/injection, schedule: Q01DX009 (ip), vehicle: saline 108 % of control | dose: 400.0 mg/kg/injection, schedule: Q01DX009 (ip), vehicle: saline 103 % of control

Cc1ccc(SC2=C(Br)C(=O)c3ccccc3C2=O)cc1
inactive: dose: 37.5 mg/kg/injection, schedule: Q01DX001 (ip), vehicle: carboxymethylcellulose (CMC) 92 % of control | [21] 94 % of control | [22] 103 % of control

CCCCCCC#CC(=O)O
inactive: dose: 100.0 mg/kg/injection, schedule: Q01DX009 (sc), vehicle: olive oil, sesame oil, peanut oil 103 % of control | dose: 100.0 mg/kg/injection, schedule: Q04DX003 (sc), vehicle: olive oil, sesame oil, peanut oil 97 % of control | dose: 200.0 mg/kg/injection, schedule: Q01DX009 (sc), vehicle: olive oil, sesame oil, peanut oil 108 % of control | dose: 200.0 mg/kg/injection, schedule: Q04DX003 (sc), vehicle: olive oil, sesame oil, peanut oil 106 % of control | dose: 400.0 mg/kg/injection, schedule: Q01DX009 (sc), vehicle: olive oil, sesame oil, peanut oil 95 % of control | dose: 400.0 mg/kg/injection, schedule: Q04DX003 (sc), vehicle: olive oil, sesame oil, peanut oil 108 % of control

COc1ccc(C=Nc2ccc(O)cc2)cc1
inactive: [3] 102 % of control | [6] 101 % of control | [7] 100 % of control | [9] 108 % of control | [17] 103 % of control | [10] 101 % of control

COc1ccc(CC(=O)NNC(=O)C2(C(C)C)OC3(O)CCCCN3C2=O)cc1OC (configuration not stated)
inactive: dose: 25.0 mg/kg/injection, schedule: Q04DX003 (ip), vehicle: saline 101 % of control | [2] 92 % of control | [6] 106 % of control | [9] 92 % of control

CCC[N+](CCC)(CCC)Cc1ccccc1
inactive: dose: 5.0 mg/kg/injection, schedule: Q01DX001 (ip), vehicle: saline 108 % of control | dose: 10.0 mg/kg/injection, schedule: Q01DX001 (ip), vehicle: saline 98 % of control | dose: 20.0 mg/kg/injection, schedule: Q01DX001 (ip), vehicle: saline 96 % of control

C/C(=N/N=C(N)N)c1ccc(Cl)cc1
inactive: dose: 15.0 mg/kg/injection, schedule: Q01DX Z (ip), vehicle: carboxymethylcellulose (CMC) 96 % of control | dose: 15.0 mg/kg/injection, schedule: Q01DX Z (oral), vehicle: carboxymethylcellulose (CMC) 108 % of control | dose: 30.0 mg/kg/injection, schedule: Q01DX Z (ip), vehicle: carboxymethylcellulose (CMC) 95 % of control | dose: 30.0 mg/kg/injection, schedule: Q01DX Z (oral), vehicle: carboxymethylcellulose (CMC) 104 % of control | dose: 60.0 mg/kg/injection, schedule: Q01DX Z (oral), vehicle: carboxymethylcellulose (CMC) 98 % of control

Cc1cc(=O)[nH]c2c1CCC2
inactive: [1] 92 % of control | [4] 95 % of control | [6] 106 % of control | [9] 108 % of control

CC1(C)CC(=O)CC(C)(C)N1
inactive: [6] 107 % of control | [9] 100 % of control

Cc1cc(P(=O)(O)O)ccc1Cl
inactive: dose: 100.0 mg/kg/injection, schedule: Q01DX009 (ip), vehicle: acetone 87 % of control | dose: 200.0 mg/kg/injection, schedule: Q01DX009 (ip), vehicle: acetone 90 % of control

COC(=O)/C=C(\C(=O)OC)c1c(-c2ccccc2)[nH]c2ccccc12
inactive: [21] 92 % of control | [22] 89 % of control | dose: 300.0 mg/kg/injection, schedule: Q01DX001 (ip), vehicle: carboxymethylcellulose (CMC) 94 % of control

O=c1c2ccccc2[nH]c2c([N+](=O)[O-])cccc12
inactive: [11] 100 % of control | [13] 99 % of control | [20] 87 % of control

c1ccc(SCN(CSc2ccccc2)c2ccccc2)cc1
inactive: [15] 106 % of control | [16] 101 % of control

Cc1ccc([Si](O)(c2ccc(C)cc2)c2ccc(C)cc2)cc1
inactive: [23] 97 % of control | [24] 97 % of control | [25] 100 % of control

O=c1[nH][nH]c(=O)c2c([N+](=O)[O-])cccc12
inactive: [23] 90 % of control | [24] 92 % of control | [25] 87 % of control

CCCCCCCCCCCCCCCCCCNC(=S)N(C)C
inactive: [5] 89 % of control | [8] 86 % of control | [19] 89 % of control

CCOC(=S)Nc1ccc(S(=O)(=O)c2ccc(NC(=S)OCC)cc2)cc1
inactive: [3] 96 % of control | [7] 92 % of control | [17] 98 % of control

O=C(O)c1ccc2ccc3cccnc3c2n1
inactive: [12] 96 % of control | [14] 113 % of control

CCOCCCN
inactive: [1] 103 % of control | [4] 95 % of control | [6] 100 % of control | [9] 106 % of control

CCOC(=O)n1cnc(N)n1
inactive: [15] 104 % of control | [16] 104 % of control | [18] 107 % of control
